Among the test systems are SF-539; SK-MEL-5; UO-31; NCI-H226; SK-MEL-28; NCI-H460; NCI/ADR-RES; MDA-MB-231; SR; COLO 205; TK-10; HCT-15; MDA-MB-435; CAKI-1; HCC 2998; EKVX; SN12C; A498; T47D.
What all share (assay): DTP human tumour cell line panel, 48 h

9 compounds from ChEMBL document CHEMBL1201862, “PubChem BioAssay data set” (2004) can be followed below.

SMILES strings stand for the structures.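 Assay format: 96-well plates, 48-hour exposure. GI50 is the concentration that inhibits growth by half.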 The source made the active and inactive calls. Rule as the data show it: active = GI50 up to about 1.1 µM and inactive = higher. Square brackets hold non-standard residues; d marks the D form. Peptide text beside a SMILES is read from it. Phe(4-Cl) = N[CH](Cc1ccc(Cl)cc1)C(=O)O; 2Nal = N[CH](Cc1ccc2ccccc2c1)C(=O)O; 3Pal = N[CH](Cc1cccnc1)C(=O)O

On to `Cc1ccc(O)c(/N=N\c2c(O)cc(S(=O)(=O)O)c3ccccc23)c1`, for which the GI50 is 62.5 µM (inactive) in the test with SF-539; 20.7 µM (inactive) in the test with SK-MEL-5; 17.3 µM (inactive) in the test on UO-31; 14.1 µM (inactive) in the test with NCI-H226; 45.3 µM (inactive) in the test on SK-MEL-28; 35.6 µM (inactive) in the test on NCI-H460. Moreover, the GI50 is 24.3 µM (inactive) in the test with NCI/ADR-RES; 25.4 µM (inactive) with MDA-MB-231; 17.8 µM (inactive) in the test on SR; 67.6 µM (inactive) in the test on COLO 205; > 100 µM (inactive) in the test on TK-10; 43.6 µM in the test on HCT-15. Further, the GI50 with MDA-MB-435 was 56.9 µM (inactive); with CAKI-1 it was 63.4 µM (inactive); in the test on HCC 2998, > 100 µM (inactive); in the test with EKVX, 96.4 µM (inactive).
Take `CC1=NN(c2nc(N)nc(NS(=O)(=O)c3cc(C)c(Cl)cc3S)n2)C(C)(C)C1`: the GI50 in the test with SF-539, in the test on SK-MEL-5, in the test with UO-31, in the test on NCI-H226, with SK-MEL-28 and with SN12C was > 10 µM (inactive) throughout. For the same compound, the GI50 in the test with A498, in the test on NCI-H460, in the test with NCI/ADR-RES, with SR, with COLO 205 and with TK-10 was > 10 µM (inactive) in each case. For the same compound, the GI50 in the test on HCT-15 was above 10 µM; with T47D, > 10 µM (inactive); with CAKI-1, > 10 µM (inactive); in the test on HCC 2998, > 10 µM (inactive); in the test on EKVX, > 10 µM (inactive).
For the compound `COC(=O)C(CC12CC3CC(CC(C3)C1)C2)NC(=O)C(N)CC(=O)O` (stereo not drawn), the GI50 in the test on SK-MEL-5, in the test with UO-31, in the test with SK-MEL-28, in the test on SN12C, in the test with NCI-H460 and in the test with NCI/ADR-RES was > 100 µM (inactive) each time. Also, the GI50 with SR is > 100 µM (inactive); with COLO 205 it was > 100 µM (inactive); in the test with TK-10, > 100 µM (inactive); in the test on HCT-15, above 100 µM; in the test with T47D, > 100 µM (inactive); with MDA-MB-435, > 100 µM (inactive). Moreover, the GI50 with CAKI-1, in the test on HCC 2998 and in the test on EKVX was > 100 µM (inactive) each time.
On to `NCC#CCNCCCN1CC1`, for which the GI50 with SF-539, in the test on SK-MEL-5, in the test on NCI-H226, in the test on SK-MEL-28, in the test on SN12C and in the test with A498 was > 100 µM (inactive) each time. Also, the GI50 in the test with NCI-H460 was > 100 µM (inactive); in the test with NCI/ADR-RES, > 100 µM (inactive); in the test on SR, > 100 µM (inactive); in the test on COLO 205, > 100 µM (inactive); in the test with TK-10, > 100 µM (inactive); in the test on HCT-15, above 100 µM. Moreover, the GI50 with T47D, with MDA-MB-435, in the test with CAKI-1, in the test with HCC 2998 and in the test on EKVX was > 100 µM (inactive) throughout.
Turning to `COC(=O)C1SC(SC)=NC12c1ccccc1Nc1ccccc12` (stereo not drawn), the GI50 with SF-539 was 17.5 µM (inactive); in the test on SK-MEL-5 it was 17.2 µM (inactive); with UO-31, 69.2 µM (inactive); in the test on NCI-H226, 53.6 µM (inactive); with SK-MEL-28, 21.1 µM (inactive); in the test with SN12C, 30.7 µM (inactive). Moreover, the GI50 is 41.8 µM (inactive) with A498; 22.1 µM (inactive) with NCI-H460; 39.9 µM (inactive) in the test with NCI/ADR-RES; 17.5 µM (inactive) in the test with SR; 20.5 µM (inactive) with COLO 205; 50 µM (inactive) with TK-10. Further, the GI50 with HCT-15 was 29.4 µM; in the test with T47D, 32.2 µM (inactive); in the test on MDA-MB-435, 27 µM (inactive); with CAKI-1, 37.3 µM (inactive); in the test on HCC 2998 it was 24.5 µM (inactive); in the test on EKVX it was 30.1 µM (inactive).
Consider `CC(=O)NC(Cc1ccc2ccccc2c1)C(=O)NC(Cc1ccc(Cl)cc1)C(=O)NC(Cc1cccnc1)C(=O)NC(CO)C(=O)NC(Cc1ccc(O)cc1)C(=O)NC(CCCN=C(N)N)C(=O)NC(CC(C)C)C(=O)NC(CCCN=C(N)N)C(=O)N1CCCC1C(=O)NC(C)C(N)=O` (stereo not drawn) (Ac-[2Nal][Phe(4-Cl)][3Pal]SYRLRPA-NH2; configuration not given here), for which the GI50 in the test with SF-539 is > 100 µM (inactive); with SK-MEL-5, 94 µM (inactive); with UO-31 it was > 100 µM (inactive); in the test with NCI-H226, > 100 µM (inactive); in the test with SN12C, > 100 µM (inactive); in the test on A498 it was > 100 µM (inactive). For the same compound, the GI50 in the test with NCI-H460 was 95.5 µM (inactive); in the test with NCI/ADR-RES, > 100 µM (inactive); in the test on MDA-MB-231 it was > 100 µM (inactive); in the test on SR, > 100 µM (inactive); with COLO 205, > 100 µM (inactive); in the test on TK-10 it was > 100 µM (inactive). Also, the GI50 was above 100 µM in the test with HCT-15; 82.8 µM (inactive) in the test on MDA-MB-435; > 100 µM (inactive) in the test with CAKI-1; > 100 µM (inactive) with HCC 2998; > 100 µM (inactive) in the test with EKVX.
Take `c1ccc2sc(C3(N4CCCCCC4)CCCCC3)cc2c1`: the GI50 is 23.4 µM (inactive) in the test on SF-539; 17.5 µM (inactive) with SK-MEL-5; 20.3 µM (inactive) in the test with UO-31; 22.6 µM (inactive) in the test on NCI-H226; 26.1 µM (inactive) with SK-MEL-28; 20.6 µM (inactive) in the test with SN12C. For the same compound, the GI50 is 18.1 µM (inactive) with A498; 18.8 µM (inactive) with NCI-H460; 21.8 µM (inactive) in the test on NCI/ADR-RES; 27.8 µM (inactive) with MDA-MB-231; 16 µM (inactive) with COLO 205; 22.8 µM (inactive) in the test with TK-10. Further, the GI50 was 22.3 µM in the test on HCT-15; 25.3 µM (inactive) in the test on MDA-MB-435; 36.5 µM (inactive) in the test with CAKI-1; 15.5 µM (inactive) with HCC 2998; 22.8 µM (inactive) with EKVX.
Regarding `O=C1CC(Cl)c2c(Cl)sc(Cl)c21` (stereo not drawn), the GI50 with SF-539 was 2.63 µM (inactive); in the test on SK-MEL-5, 13.2 µM (inactive); with UO-31, 1.99 µM (inactive); with NCI-H226, 13.4 µM (inactive); in the test on SK-MEL-28, 2.1 µM (inactive); with SN12C it was 1.84 µM (inactive). For the same compound, the GI50 is 12.2 µM (inactive) in the test with A498; 13.8 µM (inactive) in the test on NCI-H460; 3.35 µM (inactive) in the test with NCI/ADR-RES; 1.41 µM (inactive) in the test with SR; 2.02 µM (inactive) in the test on COLO 205; 2.36 µM (inactive) with TK-10. For the same compound, the GI50 in the test with HCT-15 is 2.02 µM; in the test on T47D, 2.92 µM (inactive); in the test on MDA-MB-435 it was 2.36 µM (inactive); in the test with CAKI-1 it was 1.76 µM (inactive); with HCC 2998 it was 2.36 µM (inactive); with EKVX, 3.94 µM (inactive).
As for `COc1nc(N)c(C#N)c(C#N)c1C#N`, the GI50 with SF-539, in the test on SK-MEL-5, in the test with SK-MEL-28, in the test on SN12C, in the test on NCI/ADR-RES and with MDA-MB-231 was > 10 µM (inactive) throughout. Further, the GI50 is > 10 µM (inactive) in the test with SR; > 10 µM (inactive) in the test with COLO 205; > 10 µM (inactive) in the test on TK-10; above 10 µM in the test with HCT-15; > 10 µM (inactive) with MDA-MB-435; > 10 µM (inactive) with CAKI-1. Also, the GI50 in the test with HCC 2998 was > 10 µM (inactive).

A word on the GI50: it is the concentration at which growth is held to half of that of the control.
